Assay: mn = molality of the nth substance listed, in mol/kg
Settings: 100 kPa, Liquid; for speed of sound: Frequency=3 MHz, Single path-length method; for mass density: Vibrating tube method

O=C[C@H](O)[C@@H](O)[C@H](O)[C@H](O)CO [D-glucose] + O
298.15 K
Settings	mass density [kg/m3]	speed of sound [m/s]
m1 = 0.153	–	1507.3
m1 = 1.13	1064.98	1565.3

C[N+](C)(C)[O-] [trimethylamine oxide] + O
m1 = 1.08
Settings	mass density [kg/m3]	speed of sound [m/s]
293.15 K	1000.9	1564.8
298.15 K	999.7	1575.7
303.15 K	998.26	1584.2
308.15 K	996.53	1589.4
313.15 K	994.81	1595.5

O [water] + C[N+](C)(C)[O-]
m2 = 0
Settings	speed of sound [m/s]
298.15 K	1497.7
308.15 K	1520.7

[Cl-].[Na+] [sodium chloride] + O
298.15 K
Settings	mass density [kg/m3]	speed of sound [m/s]
m1 = 0.151	1003.43	1507.5
m1 = 1.021	1037.99	1560.5

O [water] + O=C[C@H](O)[C@@H](O)[C@H](O)[C@H](O)CO
Settings	speed of sound [m/s]
298.15 K, m2 = 0	1497.7

O [water] + [Cl-].[Na+]
Settings	speed of sound [m/s]
298.15 K, m2 = 0	1497.7

C[N+](C)(C)C[C@H](O)CC(=O)[O-] [(R)-3-hydroxy-4-(trimethylammonio)butanoate] + O
Settings	mass density [kg/m3]	speed of sound [m/s]
293.15 K, m1 = 0.0937	1001.09	1492.4
293.15 K, m1 = 0.1233	1001.98	1495.2
293.15 K, m1 = 0.1554	1002.94	1498.3
293.15 K, m1 = 0.1924	1004.04	1501.8
293.15 K, m1 = 0.2249	1004.99	1504.9
293.15 K, m1 = 0.2574	1005.94	1507.9
293.15 K, m1 = 0.276	1006.48	1509.7
293.15 K, m1 = 0.3064	1007.35	1512.5
298.15 K, m1 = 0.0497	998.57	1502.3
298.15 K, m1 = 0.0994	1000.06	1506.9
298.15 K, m1 = 0.1214	1000.71	1508.9
298.15 K, m1 = 0.1509	1001.58	1511.6
298.15 K, m1 = 0.2007	1003.03	1516.1
298.15 K, m1 = 0.2203	1003.6	1517.8
298.15 K, m1 = 0.2572	1004.66	1521.2
298.15 K, m1 = 0.3012	1005.91	1525.1
303.15 K, m1 = 0.0477	997.1	1514.3
303.15 K, m1 = 0.1029	998.75	1519.2
303.15 K, m1 = 0.1227	999.33	1521
303.15 K, m1 = 0.1531	1000.21	1523.6
303.15 K, m1 = 0.2046	1001.71	1528.1
303.15 K, m1 = 0.2174	1002.07	1529.2
303.15 K, m1 = 0.255	1003.14	1532.4
303.15 K, m1 = 0.3041	1004.51	1536.7
308.15 K, m1 = 0.0512	995.58	1525.2
308.15 K, m1 = 0.0938	996.84	1528.8
308.15 K, m1 = 0.1229	997.69	1531.2
308.15 K, m1 = 0.1447	998.32	1533.1
308.15 K, m1 = 0.1952	999.78	1537.3
308.15 K, m1 = 0.2238	1000.59	1539.7
308.15 K, m1 = 0.2282	1000.71	1540.1
308.15 K, m1 = 0.304	1002.84	1546.4
313.15 K, m1 = 0.0519	993.75	1534.1
313.15 K, m1 = 0.1012	995.21	1538.2
313.15 K, m1 = 0.1204	995.77	1539.7
313.15 K, m1 = 0.1428	996.42	1541.5
313.15 K, m1 = 0.1922	997.84	1545.5
313.15 K, m1 = 0.2107	998.36	1547
313.15 K, m1 = 0.2436	999.29	1549.7
313.15 K, m1 = 0.3053	1001	1554.7

O [water] + C[N+](C)(C)C[C@H](O)CC(=O)[O-]
m2 = 0
Settings	speed of sound [m/s]
298.15 K	1497.7
308.15 K	1520.7

— the NIST ThermoML archive (doi:10.1016/j.jct.2018.01.021)
